# Test results taken from patent publication US9394297B2, “Amides as pim inhibitors” (AMGEN INC., priority 2012, dated 2016).
# Like-named read-outs stand apart in the source and are kept apart here.
# Experiments:
# Pim-1 = Pim-1 (Homo sapiens (Human), UniProt P11309); assay: Pim-Mn enzyme assay (HTRF, 384-well), Pim-1; type: biochemical; settings: Pim-1 enzyme 5 pM, ATP 1.5 μM, BAD (S112) 0.5 μM, HTRF, 22-point curve; read-out: Pim-1-Mn IC50 IP
# Pim-2 = Pim-2 (Homo sapiens (Human), UniProt Q9P1W9); assay: Pim-Mn enzyme assay (HTRF, 384-well), Pim-2; type: biochemical; settings: Pim-2 enzyme 0.5 pM, ATP 1.5 μM, BAD (S112) 0.5 μM, HTRF, 22-point curve; read-out: Pim-2-Mn IC50 IP
# Chain of Pim-2 (Q9P1W9 whole entry): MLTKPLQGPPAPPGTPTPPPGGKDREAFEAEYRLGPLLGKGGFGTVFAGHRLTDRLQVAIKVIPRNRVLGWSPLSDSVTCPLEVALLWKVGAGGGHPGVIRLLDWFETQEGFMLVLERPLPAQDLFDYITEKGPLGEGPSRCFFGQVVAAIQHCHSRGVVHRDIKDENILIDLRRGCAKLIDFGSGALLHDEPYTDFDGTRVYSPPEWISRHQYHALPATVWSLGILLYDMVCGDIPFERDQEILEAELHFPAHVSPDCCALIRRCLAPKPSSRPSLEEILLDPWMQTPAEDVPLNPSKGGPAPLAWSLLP
# [1] = system: KMS-12-BM myeloma cell line; assay: Pim KMS-12 cell assay (phospho-BAD S112 / total BAD, MSD)
# KMS-12-BM cell lines = assay: KMS12 #2 flow cytometry assay (phospho-BAD Ser112); type: cell-based; settings: Homo sapiens, 110 min; KMS-12-BM cells, pBAD Ser112 by flow cytometry, 110 min with compound; read-out: KMS-12-Flow IC50 IP
# [2] = Homo sapiens, KMS-12-BM, read-out: KMS-12-BM IC50 IP, KMS-12-BM cells, phospho-BAD (S112) vs total BAD, 1 hour 50 min with compound
# [3] = read-out: KMS-12-BM IC50 IP, KMS-12-BM cells, phospho-BAD (S112) vs total BAD, 1 hour 50 min with compound
# Chain of Pim-1 (P11309 whole entry): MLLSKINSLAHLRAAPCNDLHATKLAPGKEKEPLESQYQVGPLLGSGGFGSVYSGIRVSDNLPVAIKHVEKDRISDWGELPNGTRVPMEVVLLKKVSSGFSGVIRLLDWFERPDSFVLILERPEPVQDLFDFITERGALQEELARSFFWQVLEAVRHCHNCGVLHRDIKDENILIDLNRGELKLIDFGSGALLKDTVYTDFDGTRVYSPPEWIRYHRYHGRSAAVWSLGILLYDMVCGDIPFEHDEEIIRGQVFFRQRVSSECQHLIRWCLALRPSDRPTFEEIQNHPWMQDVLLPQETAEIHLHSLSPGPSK
SMILES,IC50 (Pim-1) [nM],IC50 (Pim-2) [nM],"IC50 [1, 2] [nM]",other results
"O=C1NCCc2[nH]c(-c3cccc4ccc(NC5CC5)nc34)cc21 [Example 99, 2-(2-(cyclopropylamino)quinolin-8-yl)-6,7-dihydro-1H-pyrrolo[3,2-c]pyridin-4(5H)-one]",1.1,7,723,
"CC1CNC(=O)c2cc(-c3cccc4ccc(Nc5ccccc5)nc34)[nH]c21 (single isomer, unassigned) [Example 30, 7-methyl-2-(2-(phenylamino)quinolin-8-yl)-6,7-dihydro-1H-pyrrolo[3,2-c]pyridin-4(5H)-one]",,,,"IC50 [1, 3]: 5890 nM"
"Cc1nc2cccc(-c3cc4c([nH]3)C3(CC3)CNC4=O)c2nc1NC1CC1 [Example 77, 2′-(3-(cyclopropylamino)-2-methyl-5-quinoxalinyl)-5′,6′-dihydrospiro[cyclopropane-1,7′-pyrrolo[3,2-c]pyridin]-4′(1′H)-one]",1.6,3.8,,"IC50 ([1]; Homo sapiens, KMS-12-BM, read-out: KMS-12-BM IC50 IP): 494 nM"
"CC[C@@H]1CNC(=O)c2cc(-c3cccc4ccc(Nc5ccccc5)nc34)[nH]c21 [Example 25, (R)-7-ethyl-2-(2-(phenylamino)quinolin-8-yl)-6,7-dihydro-1H-pyrrolo[3,2-c]pyridin-4(5H)-one]",,,4560,
"Cc1cc2cccc(-c3cc4c([nH]3)CCNC4=O)c2nc1Oc1ccccc1 [Example 104, 2-(3-methyl-2-phenoxyquinolin-8-yl)-6,7-dihydro-1H-pyrrolo[3,2-c]pyridin-4(5H)-one]",,,5230,
"CC1CNC(=O)c2cc(-c3cccc4ccc(Nc5ccccc5)nc34)[nH]c21 (racemic) [Example 238, rac-7-methyl-2-(2-(phenylamino)quinolin-8-yl)-6,7-dihydro-1H-pyrrolo[3,2-c]pyridin-4(5H)-one]",,,1280,
"CC(C)(C)Nc1nc2c(-c3cc4c([nH]3)CCNC4=O)cccc2nc1C=O [Example 282, 3-(tert-butylamino)-5-(4-oxo-4,5,6,7-tetrahydro-1H-pyrrolo[3,2-c]pyridin-2-yl)-2-quinoxalinecarbaldehyde]",5.3,,3440,
"Cc1nc2cccc(-c3cc4c([nH]3)CCNC4=O)c2nc1CC(C)(C)C [Example 272, 2-(3-(2,2-dimethylpropyl)-2-methyl-5-quinoxalinyl)-1,5,6,7-tetrahydro-4H-pyrrolo[3,2-c]pyridin-4-one]",,7.8,1530,
"O=C1NCCc2[nH]c(-c3cccc4ccc(Nc5c(F)cccc5F)nc34)cc21 [Example 175, 2-(2-((2,6-difluorophenyl)amino)quinolin-8-yl)-6,7-dihydro-1H-pyrrolo[3,2-c]pyridin-4(5H)-one]",,,1510,
"CCC1CNC(=O)c2cc(-c3cccc4ccc(Nc5ccccc5)nc34)[nH]c21 (racemic) [Example 24, rac-7-ethyl-2-(2-(phenylamino)quinolin-8-yl)-6,7-dihydro-1H-pyrrolo[3,2-c]pyridin-4(5H)-one]",,,1410,
"Cc1nc2cccc(-c3cc4c([nH]3)CCNC4=O)c2nc1NC1CCCOC1 (single isomer, unassigned) [Example 209, 2-(2-methyl-3-((tetrahydro-2H-pyran-3-yl)amino)quinoxalin-5-yl)-6,7-dihydro-1H-pyrrolo[3,2-c]pyridin-4(5H)-one]",,,,"IC50 [1, 3]: 268 nM"
"CC1CNC(=O)c2cc(-c3cccc4ccc(Nc5ccccc5)nc34)[nH]c21 (single isomer, unassigned) [Example 29, 7-methyl-2-(2-(phenylamino)quinolin-8-yl)-6,7-dihydro-1H-pyrrolo[3,2-c]pyridin-4(5H)-one]",,,,"IC50 [1, 3]: 737 nM"
"O=C1NCCc2[nH]c(-c3cccc4ccc(N[C@H]5CC[C@H](O)CC5)nc34)cc21 [Example 82, 2-(2-(((1R,4R)-4-hydroxycyclohexyl)amino)quinolin-8-yl)-6,7-dihydro-1H-pyrrolo[3,2-c]pyridin-4(5H)-one]",,,4620,
"Cc1nc2cccc(-c3cc4c([nH]3)CCNC4=O)c2nc1N[C@H]1CCC[C@@H](N)C1 (single isomer, unassigned) [Example 140, 2-(3-((cis-3-aminocyclohexyl)amino)-2-methylquinoxalin-5-yl)-6,7-dihydro-1H-pyrrolo[3,2-c]pyridin-4(5H)-one]",,,1240,
"CC[C@H]1CNC(=O)c2cc(-c3cccc4ccc(Nc5ccccc5)nc34)[nH]c21 [Example 239, (S)-7-ethyl-2-(2-(phenylamino)quinolin-8-yl)-6,7-dihydro-1H-pyrrolo[3,2-c]pyridin-4(5H)-one]",,,1850,
"CC(c1ccccc1)c1ccc2cccc(-c3cc4c([nH]3)CCNC4=O)c2n1 (single isomer, unassigned) [Example 116, 2-(2-(1-phenylethyl)quinolin-8-yl)-6,7-dihydro-1H-pyrrolo[3,2-c]pyridin-4(5H)-one]",,,7540,
"Cc1nc2cccc(-c3cc4c([nH]3)CCNC4=O)c2nc1NC(C)(C)C(N)=O [Example 62, 2-methyl-N-2-(3-methyl-8-(4-oxo-4,5,6,7-tetrahydro-1H-pyrrolo[3,2-c]pyridin-2-yl)-2-quinoxalinyl)alaninamide]",,,2610,
"CC(C)Nc1nc2c(-c3cc4c([nH]3)CCNC4=O)cccc2c(=O)n1-c1cccnc1 [Example 403, 2-((1-methylethyl)amino)-8-(4-oxo-4,5,6,7-tetrahydro-1H-pyrrolo[3,2-c]pyridin-2-yl)-3-(3-pyridinyl)-4(3H)-quinazolinone]",11.5,16.4,,IC50 (KMS-12-BM cell lines): > 40000 nM
"Cc1nc2cccc(-c3cc4c([nH]3)CCNC4=O)c2nc1N1CC(S(C)(=O)=O)C1 [Example 318, 2-(2-methyl-3-(3-(methylsulfonyl)-1-azetidinyl)-5-quinoxalinyl)-1,5,6,7-tetrahydro-4H-pyrrolo[3,2-c]pyridin-4-one]",34.1,26.7,,IC50 (KMS-12-BM cell lines): > 40000 nM
"Cc1nc2ccnc(-c3cc4c([nH]3)CCNC4=O)c2nc1NC(C)(C)C [Example 368, 2-(3-(tert-butylamino)-2-methylpyrido[3,4-b]pyrazin-5-yl)-6,7-dihydro-1H-pyrrolo[3,2-c]pyridin-4(5H)-one]",30.8,33.7,,IC50 (KMS-12-BM cell lines): 13300 nM

# Second part, led by results:
IC50 (Pim-1) [nM],IC50 (Pim-2) [nM],"IC50 [1, 2] [nM]",SMILES,other results
0.2,0.3,49.7,"CC1(Nc2cnc3cccc(-c4cc5c([nH]4)CCNC5=O)c3n2)CC1 [Example 211, 2-(3-((1-methylcyclopropyl)amino)quinoxalin-5-yl)-6,7-dihydro-1H-pyrrolo[3,2-c]pyridin-4(5H)-one]",
8,8.7,420,"Cc1nc2cccc(-c3cc4c([nH]3)CCNC4=O)c2nc1NCC(C)(C)O [Example 148, 2-(3-((2-hydroxy-2-methylpropyl)amino)-2-methylquinoxalin-5-yl)-6,7-dihydro-1H-pyrrolo[3,2-c]pyridin-4(5H)-one]",
2.2,1.4,215,"Cc1nc2cccc(-c3cc4c([nH]3)CCNC4=O)c2nc1N[C@@H](C)C1CC1 [Example 270, 2-(3-(((1S)-1-cyclopropylethyl)amino)-2-methyl-5-quinoxalinyl)-1,5,6,7-tetrahydro-4H-pyrrolo[3,2-c]pyridin-4-one]",
4.3,5.4,513,"COCC(C)(C)Nc1nc2c(-c3cc4c([nH]3)CCNC4=O)cccc2nc1C [Example 63, 2-(3-((2-methoxy-1,1-dimethylethyl)amino)-2-methyl-5-quinoxalinyl)-1,5,6,7-tetrahydro-4H-pyrrolo[3,2-c]pyridin-4-one]",
3.1,1.9,713,"Cc1nc2cccc(-c3cc4c([nH]3)CCNC4=O)c2nc1NC1CC(O)C1 (centres unmarked) [Example 72, 2-(3-((3-hydroxycyclobutyl)amino)-2-methyl-5-quinoxalinyl)-1,5,6,7-tetrahydro-4H-pyrrolo[3,2-c]pyridin-4-one]",
,,225,CC1(C)CCCN1c1cnc2cccc(-c3cc4c([nH]3)CCNC4=O)c2n1 [Example 216],
,,307,"Cc1nc2cccc(-c3cc4c([nH]3)CCNC4=O)c2nc1NC1CCCOC1 (racemic) [Example 198, rac-2-(2-methyl-3-((tetrahydro-2H-pyran-3-yl)amino)quinoxalin-5-yl)-6,7-dihydro-1H-pyrrolo[3,2-c]pyridin-4(5H)-one]",
,,107,"Cc1nc2cccc(-c3cc4c([nH]3)CCNC4=O)c2nc1NC(C)C(C)C (racemic) [Example 73, 2-(3-4(±)-1,2-dimethylpropyl)amino)-2-methyl-5-quinoxalinyl)-1,5,6,7-tetrahydro-4H-pyrrolo[3,2-c]pyridin-4-one]",
,,252,"Cc1nc2cccc(-c3cc4c([nH]3)CCNC4=O)c2nc1NC(C)(C)CCO [Example 279, 2-(3-((3-hydroxy-1,1-dimethylpropyl)amino)-2-methyl-5-quinoxalinyl)-1,5,6,7-tetrahydro-4H-pyrrolo[3,2-c]pyridin-4-one]",
,,209,"Nc1nc2cccc(-c3cc4c([nH]3)CCNC4=O)c2nc1Oc1ccccc1 [Example 36, 2-(2-amino-3-phenoxyquinoxalin-5-yl)-6,7-dihydro-1H-pyrrolo[3,2-c]pyridin-4(5H)-one]",
,,366,"Cc1nc2cccc(-c3cc4c([nH]3)CCNC4=O)c2nc1NC1CCCOC1 (single isomer, unassigned) [Example 208, 2-(2-methyl-3-((tetrahydro-2H-pyran-3-yl)amino)quinoxalin-5-yl)-6,7-dihydro-1H-pyrrolo[3,2-c]pyridin-4(5H)-one]",
